pIC50: −log10 of the molar value.
These molecules were tested against GCN2 (Homo sapiens, UniProt Q9P2K8) (assay: GCN2 enzymatic endpoint assay: phosphorylation of GFP-eIF2α measured by TR-FRET (Lanthascreen)). Conditions: GCN2 biochemical IC50; 4 nM GCN2, 2 μM ATP, 80 nM GFP-eIF2α, 90 min RT; read-out: GCN2 activity.
Format: biochemical
In short: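 Read-out is the TR-FRET ratio of acceptor signal at 520 nm to terbium donor at 495 nm, rising with antibody binding to phosphorylated GFP-eIF2α. Endpoint format: 2 μM ATP, 80 nM substrate, 90 minutes at room temperature, EDTA stop.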

Chain of GCN2 (Q9P2K8 whole entry): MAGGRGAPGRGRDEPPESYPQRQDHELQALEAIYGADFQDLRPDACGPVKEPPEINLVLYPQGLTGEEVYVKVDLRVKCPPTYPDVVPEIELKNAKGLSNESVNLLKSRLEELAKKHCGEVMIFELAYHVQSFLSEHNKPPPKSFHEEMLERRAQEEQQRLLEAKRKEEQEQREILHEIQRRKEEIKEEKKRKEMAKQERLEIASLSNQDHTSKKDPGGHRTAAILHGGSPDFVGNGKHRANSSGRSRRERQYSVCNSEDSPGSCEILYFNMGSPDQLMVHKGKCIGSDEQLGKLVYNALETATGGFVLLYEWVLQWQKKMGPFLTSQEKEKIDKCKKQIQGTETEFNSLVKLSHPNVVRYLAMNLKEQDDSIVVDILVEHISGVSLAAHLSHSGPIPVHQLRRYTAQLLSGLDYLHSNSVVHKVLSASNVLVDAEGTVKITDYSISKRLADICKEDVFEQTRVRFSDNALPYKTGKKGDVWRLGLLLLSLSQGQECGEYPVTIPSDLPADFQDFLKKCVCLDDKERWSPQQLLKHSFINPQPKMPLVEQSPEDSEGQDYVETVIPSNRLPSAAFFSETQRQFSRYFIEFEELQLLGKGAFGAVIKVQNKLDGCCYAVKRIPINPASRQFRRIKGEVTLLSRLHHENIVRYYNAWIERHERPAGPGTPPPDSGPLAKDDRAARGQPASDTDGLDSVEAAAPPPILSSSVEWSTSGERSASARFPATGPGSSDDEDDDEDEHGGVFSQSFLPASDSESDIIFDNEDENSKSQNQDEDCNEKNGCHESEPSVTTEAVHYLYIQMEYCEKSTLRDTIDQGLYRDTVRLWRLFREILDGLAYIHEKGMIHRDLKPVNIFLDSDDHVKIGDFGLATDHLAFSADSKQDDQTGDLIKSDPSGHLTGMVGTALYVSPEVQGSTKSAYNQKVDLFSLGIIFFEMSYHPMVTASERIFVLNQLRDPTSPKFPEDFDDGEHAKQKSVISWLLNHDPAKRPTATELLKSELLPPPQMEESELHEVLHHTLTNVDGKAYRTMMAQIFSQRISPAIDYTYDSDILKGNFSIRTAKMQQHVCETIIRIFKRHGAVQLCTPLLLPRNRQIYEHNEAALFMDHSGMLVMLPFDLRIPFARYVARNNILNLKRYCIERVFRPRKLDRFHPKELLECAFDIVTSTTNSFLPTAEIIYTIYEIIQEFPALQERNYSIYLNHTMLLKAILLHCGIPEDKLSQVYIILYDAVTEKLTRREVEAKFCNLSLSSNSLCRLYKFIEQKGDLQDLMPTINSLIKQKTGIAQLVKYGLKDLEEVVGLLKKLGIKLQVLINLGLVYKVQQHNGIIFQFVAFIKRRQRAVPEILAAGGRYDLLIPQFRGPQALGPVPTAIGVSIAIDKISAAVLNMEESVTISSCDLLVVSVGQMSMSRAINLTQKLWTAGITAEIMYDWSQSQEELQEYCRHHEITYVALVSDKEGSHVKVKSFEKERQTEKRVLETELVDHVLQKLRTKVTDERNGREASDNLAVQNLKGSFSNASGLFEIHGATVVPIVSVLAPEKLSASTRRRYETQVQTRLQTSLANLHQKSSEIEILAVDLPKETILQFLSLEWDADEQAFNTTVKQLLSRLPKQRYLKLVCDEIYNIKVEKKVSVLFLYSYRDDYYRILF

Row | Structure (SMILES) | pIC50
1 | CNC(=O)[C@]1(CC(F)F)CC[C@@H](Nc2ncc3c(Br)nn(-c4ccc(-c5nnc(C)s5)cc4)c3n2)C1 [Example 39, (1R,3R)-3-((3-bromo-1-(4-(5-methyl-1,3,4-thiadiazol-2-yl)phenyl)-1H-pyrazolo[3,4-d]pyrimidin-6-yl)amino)-1-(2,2-difluoroethyl)-N-methylcyclopentane-1-carboxamide; 2,2,2-trifluoroacetic acid] | > 7.60

Same assay, conditions: tested as described in Example 77; compound and/or hydrochloride, dihydrochloride or trifluoroacetic acid salt; read-out: IC 50 Activity

Row | Structure (SMILES) | pIC50
2 | CNC(=O)[C@]1(C)CC[C@@H](Nc2ncc3c(Br)nn(-c4ccc(-c5ncco5)c(CCN5CCOCC5)c4)c3n2)C1 [(1R,3R)-3-[[3-bromo-1-[3-(2-morpholino-ethyl)-4-oxazol-2-yl-phenyl]pyrazolo [3,4-d]pyrimidin-6-yl]amino]-N,1-dimethyl-cyclopentanecarboxamide] | 6.70 to 7.60
3 | CN1CCN(C(=O)[C@@H]2CC[C@@H](Nc3ncc4c(Br)nn(-c5cc(C(F)F)c6ncccc6c5)c4n3)C2)CC1=O [4-((1R,3R)-3-((3-bromo-1-(8-(difluoromethyl)quinolin-6-yl)-1H-pyrazolo[3,4-d]pyrimidin-6-yl)amino)cyclopentane-1-carbonyl)-1-methyl-piperazin-2-one] | 6.70 to 7.60
4 | CNC(=O)[C@]1(C)CC[C@@H](Nc2ncc3c(Br)nn(-c4ccc(-c5nnc(C)o5)nc4)c3n2)C1 [(1R,3R)-3-[[3-bromo-1-[6-(5-methyl-1,3,4-oxadiazol-2-yl)-3-pyridyl]pyrazolo [3,4-d]pyrimidin-6-yl]amino]-N,1-dimethyl-cyclopentanecarboxamide] | 6.70 to 7.60
5 | CNC(=O)[C@]1(C)CC[C@@H](Nc2ncc3c(Br)nn(-c4cc(C5CCCO5)c5ncccc5c4)c3n2)C1 (stereo partly drawn) [(1R,3R)-3-[[3-bromo-1-(8-tetrahydrofuran-2-yl-6-quinolyl)pyrazolo[3,4-d]pyrimidin-6-yl]amino]-N,1-dimethyl-cyclopentane-carboxamide] | 6.70 to 7.60
6 | CNC(=O)[C@]1(CCOC)CC[C@@H](Nc2ncc3c(Br)nn(-c4ccc(-c5nnc(C)s5)cc4)c3n2)C1 | 6.70 to 7.60
7 | CNC(=O)[C@]1(C)CC[C@@H](Nc2ncc3c(Br)nn(-c4ccc(-c5nnc(C)o5)cc4)c3n2)C1 [(1R,3R)-3-[[3-bromo-1-[4-(5-methyl-1,3,4-oxadiazol-2-yl)phenyl]pyrazolo[3,4-d]pyrimidin-6-yl]amino]-N,1-dimethyl-cyclo-pentanecarboxamide] | > 7.60
8 | Cc1nnc(-c2ccc(-n3nc(Br)c4cnc(N[C@@H]5CC[C@@](C)(C(=O)N6CCNCC6)C5)nc43)cc2)s1 [[(1R,3R)-3-[[3-bromo-1-[4-(5-methyl-1,3,4-thiadiazol-2-yl)phenyl]pyrazolo [3,4-d]pyrimidin-6-yl]amino]-1-methyl-cyclopentyl]-piperazin-1-yl-methanone] | 6.70 to 7.60
9 | CNC(=O)[C@]1(C)CC[C@@H](Nc2ncc3c(Br)nn(-c4cc(OCCO)c5c(c4)OCC(=O)N5C)c3n2)C1 [(1R,3R)-3-[[3-bromo-1-[5-(2-hydroxyethoxy)-4-methyl-3-oxo-1,4-benzoxazin-7-yl]pyrazolo [3,4-d]pyrimidin-6-yl]amino]-N,1-dimethyl-cyclopentanecarboxamide] | > 7.60
10 | C[C@@H]1C(=O)N(C)CCN1C(=O)[C@@H]1CC[C@@H](Nc2ncc3c(Br)nn(-c4cc(C#N)c5ncccc5c4)c3n2)C1 [6-(3-bromo-6-(((1R,3R)-3-((R)-2,4-dimethyl-3-oxopiperazine-1-carbonyl)cyclopentyl)amino)-1H-pyrazolo[3,4-d]pyrimidin-1-yl) quinoline-8-carbonitrile] | > 7.60
11 | O=C(CO)N1CCN(C(=O)[C@@H]2CC[C@@H](Nc3ncc4c(Br)nn(-c5cc(F)c6ncccc6c5)c4n3)C2)CC1 [1-(4-((1R,3R)-3-((3-bromo-1-(8-fluoroquinolin-6-yl)-1H-pyrazolo[3,4-d]pyrimidin-6-yl)amino)cyclopentane-1-carbonyl)piperazin-1-yl)-2-hydroxyethan-1-one] | 6.70 to 7.60
12 | NC(=O)C1(NC(=O)[C@@H]2CC[C@@H](Nc3ncc4c(Br)nn(-c5cc(F)c6ncccc6c5)c4n3)C2)CC1 [(1R,3R)-3-[[3-bromo-1-(8-fluoro-6-quinolyl)pyrazolo[3,4-d]pyrimidin-6-yl]amino]-N-(1-carbamoylcyclopropyl)cyclopentane-carboxamide] | 6.70 to 7.60
13 | COCCNC(=O)[C@]1(C)CC[C@@H](Nc2ncc3c(Br)nn(-c4ccc5ncccc5c4)c3n2)C1 [(1R,3R)-3-((3-bromo-1-(quinolin-6-yl)-1H-pyrazolo[3,4-d]pyrimidin-6-yl)amino)-N-(2-methoxyethyl)-1-methylcyclopentane-1-carboxamide] | 6.70 to 7.60
14 | CNC(=O)[C@H]1C[C@H](Nc2ncc3c(Br)nn(-c4ccc(-c5nnc(C)s5)cc4)c3n2)CO1 [(2R,4S)-4-[[3-bromo-1-[4-(5-methyl-1,3,4-thiadiazol-2-yl)phenyl]pyrazolo [3,4-d]pyrimidin-6-yl]amino]-N-methyl-tetrahydrofuran-2-carboxamide] | 6.70 to 7.60
15 | Cc1nnc(-c2ccc(-n3nc(Br)c4cnc(N[C@@H]5CC[C@@H](C(=O)N6CCN(C)C(=O)C6)C5)nc43)cc2F)o1 [4-((1R,3R)-3-((3-bromo-1-(3-fluoro-4-(5-methyl-1,3,4-oxadiazol-2-yl)phenyl)-1H-pyrazolo[3,4-d]pyrimidin-6-yl)amino)cyclo-pentane-1-carbonyl)-1-methylpiperazin-2-one] | 6.70 to 7.60
16 | CNC(=O)[C@]1(C)CC[C@@H](Nc2ncc3c(Br)nn(-c4cc(CN5CCNCCC5=O)c5ncccc5c4)c3n2)C1 [(1R,3R)-3-[[3-bromo-1-[8-[(7-oxo-1,4-diazepan-1-yl)methyl]-6-quinolyl]pyrazolo[3,4-d]pyrimidin-6-yl]amino]-N,1-dimethyl-cyclopentanecarboxamide] | 6.70 to 7.60
17 | Cc1nnc(-c2ccc(-n3nc(Br)c4cnc(N[C@@H]5CC[C@@H](NC(=O)[C@@H]6CCCCN6)C5)nc43)cc2)s1 | 6.70 to 7.60
18 | CNC(=O)[C@]1(C)CC[C@@H](Nc2ncc3c(Br)nn(-c4cc5cccnc5cn4)c3n2)C1 [(1R,3R)-3-[[3-bromo-1-(1,7-naphthyridin-6-yl)pyrazolo[3,4-d]pyrimidin-6-yl]amino]-N,1-dimethyl-cyclopentane-carboxamide] | 6.70 to 7.60
19 | N#Cc1cc(-n2nc(Br)c3cnc(N[C@@H]4CC[C@@H](C(=O)NC[C@H]5COCCN5)C4)nc32)cc2cccnc12 [(1R,3R)-3-((3-bromo-1-(8-cyanoquinolin-6-yl)-1H-pyrazolo[3,4-d]pyrimidin-6-yl)amino)-N-(((S)-morpholin-3-yl)methyl)cyclopentane-1-carboxamide] | > 7.60
20 | CNC(=O)[C@]1(C)CC[C@@H](Nc2ncc3c(Br)nn(-c4ccc(-c5nnc(C(C)N)s5)cc4)c3n2)C1 (stereo partly drawn) [(1R,3R)-3-[[1-[4-[5-(1-aminoethyl)-1,3,4-thiadiazol-2-yl]phenyl]-3-bromo-pyrazolo [3,4-d]pyrimidin-6-yl]amino]-N,1-dimethyl-cyclopentanecarboxamide] | 6.70 to 7.60
21 | CNC(=O)[C@@]1(C)CC[C@@H](Nc2ncc3c(Br)nn(-c4ccc(OCCO)cc4)c3n2)C1 [(1S,3R)-3-[[3-bromo-1-[4-(2-hydroxy-ethoxy)phenyl]pyrazolo[3,4-d]pyrimidin-6-yl]amino]-N,1-dimethyl-cyclopentane-carboxamide] | 6.70 to 7.60
22 | Cc1nnc(-c2ccc(-n3nc(Br)c4cnc(N[C@@H]5CC[C@@](C)(C(=O)NCC(F)F)C5)nc43)cc2)s1 [(1R,3R)-3-[[3-bromo-1-[4-(5-methyl-1,3,4-thiadiazol-2-yl)phenyl]pyrazolo [3,4-d]pyrimidin-6-yl]amino]-N-(2,2-difluoroethyl)-1-methyl-cyclopentane-carboxamide] | 6.70 to 7.60
